Consider two compounds from patent publication US20260174682A1, “GAMMA-AMINOBUTYRIC ACID DERIVATIVE COMPRISING POLYCYCLIC STRUCTURE, METHOD FOR PREPARING SAME, AND USE THEREOF” (ZHONGSHAN INSTITUTE FOR DRUG DISCOVERY, SIMM, CAS., priority 2022, published 2026).

Marks after values point to notes of the source that are not given here.

Format in all cases: in vivo
The test system of test [1] is mouse 6-Hz psychomotor seizure model. Put plainly: Antiepileptic effect in mouse 6-Hz psychomotor seizure model. The note with it: 6-Hz model, C57BL/6 mice, gavage. Here is the method: A negative vehicle control group, a positive drug control group (pregabalin and gabapentin) and a test group of the compounds of the present application were set. Male C57BL/6 mice with a body weight of 20±2 g were selected. […] After fasted for 12 h, the mice were administered the compounds of the present application or the control drugs, and then subjected to 6-Hz electrical stimulation to induce epilepsy seizure behaviors after a certain time interval (2 h for pregabalin, 1 h for gabapentin, 1 h for levetiracetam, and 3 h for the compounds of the present application). In an induction model, when the stimulation was performed with a Model 4100 stimulator (A-M Systems, the United States), rear necks of the mice were immobilized by hands on a feeding cage, a corneal electrode was moisten with normal saline and allowed to gently contact bilateral corneas of the mice, the electrical stimulator was trod by a foot to give the mice the electrical stimulation with a stimulation parameter of 6-Hz, a one-way square wave of 32 mA, a wave width of 0.2 ms and a stimulation duration of 3 sec, and timing was performed with a stopwatch during the stimulation. After the electrical stimulation was completed, the mice with the seizure behaviors lasting for less than 7 sec were regarded as being protected by the drugs, and the mice with the seizure behaviors lasting for more than 7 sec were regarded as being not protected from the epilepsy by the drugs. Response situations of the animals were observed and recorded, and obtained data were counted to calculate protection rates of the compounds.
Statistical method: The protection rates of different administration groups were separately compared with that of the vehicle control group to carry out a Fisher's exact test.

Test [2] relates to mouse maximum electroshock model (MES). Put plainly: Antiepileptic effect in mouse maximum electroshock model (MES). The settings on record: gavage; for Number of animals with tonic straightening of hind limbs/total number of detected animals / Protection rate (%): MES, ICR mice. As to the method:
A negative vehicle control group, a positive drug control group (pregabalin and gabapentin) and a test group of the compounds of the present application were set. Male ICR mice with a body weight of […] were selected. […] After fasted for 12 h, the mice were administered the compounds of the present application or the control drugs according to the body weight, and then subjected to electrical stimulation to induce generalized tonic-clonic seizure behaviors after a certain lime interval (2 h for pregabalin, 1 h for gabapentin, and 3 h for the compounds of the present application). A YLS-9A electrophysiological stimulator (Shanghai Xinruan Information Technology Co., Ltd.) was used in an induction model, and parameters were set as follows: configuration 8, stimulation voltage 160 V, wave number 90. When the electrical stimulation was performed, ears on both sides of the mice were firstly wiped with normal saline and then given the electrical stimulation for 1 lime with ear clip electrodes. Tonic straightening of hind limbs was used as a standard for epilepsy seizures. The animals with the tonic straightening of hind limbs were regarded as not being protected by the drugs, and the animals without the tonic straightening of hind limbs were regarded as being protected by the drugs. Response situations of the animals were observed and recorded, and obtained data were counted to calculate protection rates of the compounds.
Median effective doses (ED50) of the compounds to be tested for animal protection were calculated by a least square method (Graphpad Prism 5) with an administration dose-protection rate curve.

Test [3] deals with Sprague Dawley (SD) rat spared nerve injury (SNI) model. Briefly: Analgesic effect in rat spared nerve injury (SNI) chronic neuropathic pain model. The settings on record: SNI rats. As to the method: Establishment of the SNI model: Surgery was performed according to an aseptic operation method, and various surgical instruments, including scalpels, tweezers, suture needles/threads, surgical cotton, etc., were disinfected before the surgery. Animals were anesthetized by intraperitoneal injection of a Zoletil™ 50 solution at 50 mg/kg and then placed in lateral decubitus positions. After hair in surgical areas of lower bodies of animals was shaved, the animals were disinfected alternately with iodophor and 75% alcohol. The skin was cut at upper edges of left hind limbs, muscles were bluntly separated to expose a sciatic nerve trunk and 3 branches thereof, i.e., a tibial nerve, a common peroneal nerve and a sural nerve. The tibial nerve and the common peroneal nerve were ligated and cut, and the sural nerve was preserved and maintained intact. After the surgery, wounds were sutured layer by layer, the animals were administered with 25% ampicillin (1 mL/kg) through intraperitoneal injection to prevent infection, and routine nursing was performed. In sham group, only the sciatic nerve and the branches thereof were exposed, the nerves were not ligated and cut, and other operations were the same as those in the model group. Detection of a mechanical pain threshold: A Von-frey test fiber was used to detect the mechanical pain threshold of the sole of an operative side of each animal on day 1, day 3 and day 7 after the surgery, respectively. An “up-and-down” method was used as a method of detecting the mechanical pain threshold at the stimulation intensity of 0.4, 0.6, 1, 2, 4, 6, 8, and 15 g. During the test, the test fiber was used to vertically stimulate the site, close to an outer side, in the sole center of the left hind paw of a rat for 6-8 seconds each time at an interval of 5 seconds. A pain response was shown as an obvious paw withdrawal, paw licking, or paw lifting behavior of the animals during each test. From day 11 after the surgery, the animals were placed in an experimental environment for adaptation, wherein the adaptation was performed continuously for 15 min per day for 3 days. On day 13, a basic value of mechanical pain hypersensitivity was detected after the adaptation was completed. The mechanical pain hypersensitivity was expressed by a 50% paw-withdrawal threshold (PWT) according to a calculation formula of 50% PWT (g)=10^xf+kδ, wherein xf is a log value of a fiber test force, k is a tabular value, and δ is an average spacing of the log value of the fiber test force.
Pharmacodynamic evaluation: According to basic threshold detection results on day 13 after the surgery, the animals in the model group without the mechanical pain hypersensitivity, that is, the PWT was greater than 4 g, were excluded, and the other successfully modeled animals were used for a formal test. On day 14 after the surgery, various compound to be tested were newly formulated. Pregabalin was directly dissolved with 0.9% sodium chloride at a dose of 30 mg/kg to obtain a solution at a desired concentration. (±)—I-7, (±)—I-3 and (±)—I-4 p-toluenesulfonate were also completely dissolved with a 0.9% sodium chloride solution at a dose of 30 mg/kg (calculated by free base). The successfully modeled animals were randomly divided into 5 groups with 8 animals in each group. In addition, 7 animals were selected in the sham group. […] The mechanical pain hypersensitivity response of the left hind paw was detected at 1 h, 2 h, 4 h, 6 h, 8 h, 10 h, and 24 h after the administration. Evaluation was performed by using a blind method, and a detection method was the same as above. An area under a mechanical pain threshold-time curve (AUC) was calculated using GraphPad Prism Version 8.0.1 software.

[4] abbreviates: dose 3 mg/kg (own compounds calculated by free base).
[5] abbreviates: dose 6 mg/kg (own compounds calculated by free base).
[6] abbreviates: dose 10 mg/kg (own compounds calculated by free base).
Where [7] appears, read: dose 18 mg/kg (own compounds calculated by free base).
Setting [8] is: dose 30 mg/kg (own compounds calculated by free base).
[9] abbreviates: dose 60 mg/kg (own compounds calculated by free base).
The mark [10] stands for this setting: oral gavage 10 mg/kg (calculated by free base), from AUC of mechanical pain threshold-time curve to 24 h.
Setting [11] is: dose 60 mg/kg (calculated by free base).

In the case of `CC(C)C[C@H](CN)CC(=O)O` [Pregabalin], the “Number of animals with clonic seizures/total number” value in test [1] (dose 30 mg/kg) is listed as 1/6**. The “Protection rate (%)” value in test [1] (dose 30 mg/kg) is 83.3 *** %; in test [2] (setting [4]) it was 25%; in test [2] (setting [5]), 16.67%; in test [2] (setting [6]), 50%; in test [2] (setting [7]) it was 58.33%; in test [2] (setting [8]), 80%. Further, the “Protection rate (%)” value in test [2] (setting [9]) is 91.66%. The “Number of animals with tonic straightening of hind limbs/total number of detected animals” value in test [2] (setting [4]) is reported as 9/12; in test [2] (setting [5]), 10/12; in test [2] (setting [6]), 6/12; in test [2] (setting [7]) it was 5/12; in test [2] (setting [8]), 4/20; in test [2] (setting [9]), 1/12. In addition, in test [2] (Mus musculus, po, MES mice, least square fit of administration dose-protection rate curve, read-out: Median effective dose (ED50) for animal protection), the ED50 is 12 mg/kg. For the same compound, the “maximum possible effect (MPE)” value in test [3] (setting [10]) is 23.04%. Further, the “maximum possible effect (% MPE)” value in test [3] (oral gavage 30 mg/kg (calculated by free base), from AUC of mechanical pain threshold-time curve to 24 h) is given as 110.90%.

In the case of `Cc1ccc(S(=O)(=O)O)cc1.NCC1(CC(=O)O)CC2C3C=CC(C3)C21` (single isomer, unassigned; (+)) [(+)-I-4 p-toluenesulfonate], the “Number of animals with clonic seizures/total number” value in test [1] (setting [11]) is 2/4. In addition, the “Protection rate (%)” value in test [1] (setting [11]) is 50.0 * %; in test [2] (setting [4]) it was 12.5%; in test [2] (setting [5]), 25%; in test [2] (setting [6]) it was 12.5%; in test [2] (setting [7]) it was 41.7%; in test [2] (setting [8]) it was 62.5%. Besides, the “Protection rate (%)” value in test [2] (setting [9]) is 83.3%. Further, in test [2] (MES mice, least square fit of administration dose-protection rate curve), the “Median effective dose (ED50) for animal protection” value was 21.51 mg/kg. The “Number of animals with tonic straightening of hind limbs/total number of detected animals” value in test [2] (setting [4]) is 7/8; in test [2] (setting [5]), 6/8; in test [2] (setting [6]), 7/8; in test [2] (setting [7]), 7/12; in test [2] (setting [8]) it was 3/8; in test [2] (setting [9]), 1/6. In addition, the “area under the mechanical pain threshold-time curve compared with the vehicle control group” value in test [3] (oral gavage 10 mg/kg (calculated by free base)) was “significantly improved”. Moreover, the “maximum possible effect (MPE)” value in test [3] (setting [10]) is 69.09%.
